Data as given in patent publication US9322022B2, “Inhibition of DNA2 in fanconi anemia” (California Institute of Technology, priority 2013, dated 2016).

Legend:
PD20 FANCD2−/− cells = test: Clonogenic assay for cisplatin sensitivity; type: cell-based, human; conditions: FANCD2−/− cells (empty vector)
Procedure: (§1) The genetic interaction between FANCD2 and DNA2 was examined in the repair of cisplatin- or formaldehyde-induced damage. Using PD20 FANCD2^−/− cells complemented with wild-type FANCD2 or an empty vector, DNA2 was depleted using shRNA techniques (FIG. 2A). As shown, DNA2 was reduced to levels undetectable by western blotting. The cell lines were exposed to cisplatin, and a clonogenic assay was performed (FIG. 2B). […] This rescue is stronger than previously reported, consistent with lower residual DNA2 levels detected by western blotting in the knockdowns (Karanja et al., 2012, Cell Cycle, 11:3983-3996, the entire contents of which are herein incorporated by reference.)
(§2) For acute exposure, formaldehyde (0, 40, 80, 160, 320 μM) was added for 4 h in PBS. Cells were washed in PBS and grown for 5 days. For chronic exposure, cells were continuously grown in formaldehyde (0, 30, 60, 90, 120 μM) for 6 days. To determine viability, cells were fixed and stained with crystal violet and scanned with a Licor Odyssey scanner (LiCor Biosciences). The surviving fraction was determined by comparing treated with the non-treated controls. […] Surviving fraction was determined by comparing treated with the non-treated controls.

[1] = system: PD20 FANCD2−/− cells complemented with wild-type FANCD2; test: Clonogenic assay for cisplatin sensitivity; type: cell-based, human
Procedure: as §1, §2

N.N.[Cl][Pt][Cl] [cisplatin]
sensitivity of cells to cisplatin (clonogenic survival) (PD20 FANCD2−/− cells): very sensitive | sensitivity of cells to cisplatin (clonogenic survival) [1]: resistant
